Measurements taken from patent publication US20250304563A1, “ACTIVATORS OF EFFECTOR T CELLS” (Orum Therapeutics, Inc., priority 2022, published 2025).

How the values were obtained:
Human primary T cells [1] = test: T cell activation: secreted IFN-y; format: cell-based; details: 48 hours, fold over background normalized to Compound 141A; for IFN-y 1 nM: 1 nM compound; for IFN-y 10 nM: 10 nM compound; for IFN-y 100 nM: 100 nM compound
Procedure, shortened: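 Values are binned ranges (A–D) of fold increase over anti-CD3/CD28 background, normalized to a reference compound, for IFN-γ in supernatants measured by bead array. Pan-T cells from donor PBMC or LeukoPaks were stimulated on anti-CD3-coated wells (10 μg/mL coating) in serum-free medium with compound for 48 h at 37 °C.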

Human primary T cells [2] = test: T cell activation: secreted IL-2; format: cell-based; details: 48 hours, fold over background normalized to Compound 141A; for IL-2 1 nM: 1 nM compound; for IL-2 10 nM: 10 nM compound; for IL-2 100 nM: 100 nM compound
Procedure, shortened: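 IL-2 values are fold over anti-CD3/CD28 background, normalized to a reference compound and sorted into ranges. They come from supernatants of human pan-T cells captured on anti-CD3-coated plates and exposed 48 h, 37° C., to duplicate compound dilutions, measured with cytometric beads.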

Human primary T cells [3] = test: T cell activation: CD69 surface expression by flow cytometry; format: cell-based; details: fold over anti-CD3 stimulated background normalized to Compound 141A; for CD69 10 nM: 10 nM compound; for CD69 100 nM: 100 nM compound
Procedure, shortened: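 Read-out is flow-cytometric CD69 surface staining, expressed as fold increase over anti-CD3-stimulated background and normalized to Compound 141A. Human pan T cells from PBMC or LeukoPaks were plated on OKT3-coated wells in serum-free XVivo-15. Compound dilutions were added for 48 h at 37° C, 5% CO2.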

[4] = molecular target: Cbl-b (36-427 aa truncated form, N-terminus Avi-tag) (Homo sapiens (Human), UniProt Q13191); test: Cbl-b binding: TR-FRET displacement of BODIPY-FL probe
Cbl-b (36-427 aa truncated form, N-terminus Avi-tag), sequence (Q13191 36-427): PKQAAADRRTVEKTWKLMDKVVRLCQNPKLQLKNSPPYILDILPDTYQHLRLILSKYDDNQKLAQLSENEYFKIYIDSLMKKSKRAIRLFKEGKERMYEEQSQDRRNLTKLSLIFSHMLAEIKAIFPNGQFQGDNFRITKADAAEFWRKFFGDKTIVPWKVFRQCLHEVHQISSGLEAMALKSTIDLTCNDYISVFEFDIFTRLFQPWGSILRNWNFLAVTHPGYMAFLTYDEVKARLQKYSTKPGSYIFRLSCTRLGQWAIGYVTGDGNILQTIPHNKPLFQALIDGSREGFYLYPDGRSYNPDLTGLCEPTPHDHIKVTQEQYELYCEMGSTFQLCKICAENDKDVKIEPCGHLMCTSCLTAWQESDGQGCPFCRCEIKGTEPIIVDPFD
Procedure, shortened: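 IC50 from loss of terbium–BODIPY-FL TR-FRET signal as compounds compete off a fluorescent Cbl-b inhibitor probe (1 uM) for 1 h at RT. Protein: N-Avi-tagged human Cbl-b 36-427 on streptavidin-terbium, 20 mM HEPES pH 7.5 buffer.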

SMILES	IFN-y 1 nM (Human primary T cells [1])	IFN-y 10 nM (Human primary T cells [1])	IFN-y 100 nM (Human primary T cells [1])	IL-2 1 nM (Human primary T cells [2])	IL-2 10 nM (Human primary T cells [2])	IL-2 100 nM (Human primary T cells [2])	CD69 10 nM (Human primary T cells [3])	CD69 100 nM (Human primary T cells [3])	IC50 [4]
C[C@H]1CCCN(Cc2cc3c(c(C(F)(F)F)c2)CN(c2cc(C4(Cc5nncn5C)COC4)cc(SCC(O)CO)n2)C3=O)C1.O=CO (stereo partly drawn) [Compound 120, 2-{6-[(2,3-dihydroxypropyl)sulfanyl]-4-{3-[(4-methyl-1,2,4-triazol-3-yl)methyl]oxetan-3-yl}pyridin-2-yl}-6-{[(3S)-3-methylpiperidin-1-yl]methyl}-4-(trifluoromethyl)-3H-isoindol-1-one; formic acid]	C (values between 0.10 and 0.30: range “C”)	C (values between 0.10 and 0.30: range “C”)	C (values between 0.10 and 0.30: range “C”)	C (values between 0.10 and 0.30: range “C”)	C (values between 0.10 and 0.30: range “C”)	C (values between 0.10 and 0.30: range “C”)	C (values between 0.30 and 0.60: range “C”)	C (values between 0.30 and 0.60: range “C”)	20 to 100 nM
C=CC(=O)N1CCN(c2cc(C3(Cc4nncn4C)COC3)cc(N3Cc4c(cc(CN5CCC[C@H](C)C5)cc4C(F)(F)F)C3=O)n2)CC1 [Compound 121, (S)-2-(6-(4-acryloylpiperazin-1-yl)-4-(3-((4-methyl-4H-1,2,4-triazol-3-yl)methyl)oxetan-3-yl)pyridin-2-yl)-6-((3-methylpiperidin-1-yl)methyl)-4-(trifluoromethyl)isoindolin-1-one]	C (values between 0.10 and 0.30: range “C”)	C (values between 0.10 and 0.30: range “C”)	B (values between 0.31 and 1.00: range “B;”)	C (values between 0.10 and 0.30: range “C”)	C (values between 0.10 and 0.30: range “C”)	B (values between 0.31 and 0.79: range “B”)	C (values between 0.30 and 0.60: range “C”)	A (values between 0.81 and 1.10: range “A”)	20 to 100 nM
C[C@H]1CCCN(Cc2cc3c(c(C(F)(F)F)c2)CN(c2cc(C4(Cc5nncn5C)COC4)cc(OCCCC#N)n2)C3=O)C1.O=C(O)C(F)(F)F [Compound 122, 4-[(4-{3-[(4-methyl-1,2,4-triazol-3-yl)methyl]oxetan-3-yl}-6-(6-{[(3S)-3-methylpiperidin-1-yl]methyl}-1-oxo-4-(trifluoromethyl)-3H-isoindol-2-yl)pyridin-2-yl)oxy]butanenitrile; trifluoroacetic acid]	C (values between 0.10 and 0.30: range “C”)	B (values between 0.31 and 1.00: range “B;”)	B (values between 0.31 and 1.00: range “B;”)	C (values between 0.10 and 0.30: range “C”)	B (values between 0.31 and 0.79: range “B”)	B (values between 0.31 and 0.79: range “B”)	B (values between 0.61 and 0.80: range “B;”)	A (values between 0.81 and 1.10: range “A”)	1 to 5 nM
CC(C)C(C#N)Oc1cc(C2(Cc3nncn3C)COC2)cc(N2Cc3c(cc(CN4CCC[C@H](C)C4)cc3C(F)(F)F)C2=O)n1.O=CO (stereo partly drawn) [Compound 123, 3-methyl-2-[(4-{3-[(4-methyl-1,2,4-triazol-3-yl)methyl]oxetan-3-yl}-6-(6-{[(3S)-3-methylpiperidin-1-yl]methyl}-1-oxo-4-(trifluoromethyl)-3H-isoindol-2-yl)pyridin-2-yl)oxy]butanenitrile; formic acid]	C (values between 0.10 and 0.30: range “C”)	C (values between 0.10 and 0.30: range “C”)	B (values between 0.31 and 1.00: range “B;”)	C (values between 0.10 and 0.30: range “C”)	C (values between 0.10 and 0.30: range “C”)	B (values between 0.31 and 0.79: range “B”)	C (values between 0.30 and 0.60: range “C”)	B (values between 0.61 and 0.80: range “B;”)	1 to 5 nM
